How the values were obtained:
Format in all cases: in vivo
Avena fatua (AVEFA) [1] = test: B1 Pre-emergence herbicidal activity; set-up: key: 5=total damage to plant; 0=no damage to plant; conditions: pre-emergence application, rate 1000 g/ha, evaluated after 13 days
In short: (§1)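 Damage was rated visually on a 0–5 scale (0 no damage, 5 total damage) 13 days after treatment. Soil-sown seeds had been sprayed one day after sowing with an aqueous acetone/water (50:50) solution containing 0.5% Tween 20, then kept in a glasshouse at 24/16 °C, 14 h light, 65% humidity.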

[2] = test system: Alopecurus myosuroides (ALOMY); test: B1 Pre-emergence herbicidal activity; set-up: key: 5=total damage to plant; 0=no damage to plant; conditions: pre-emergence application, rate 1000 g/ha, evaluated after 13 days
In short: as §1

[3] = test system: Triticum aestivium (TRZAW); test: B1 Pre-emergence herbicidal activity; set-up: key: 5=total damage to plant; 0=no damage to plant; conditions: pre-emergence application, rate 1000 g/ha, evaluated after 13 days
In short: as §1

Avena fatua (AVEFA) [4] = test: B2 Post-emergence herbicidal activity; conditions: post-emergence application, rate 1000 g/ha, evaluated after 13 days
Method: (§2) Seeds of a variety of test species were sown in standard soil in pots: Triticum aestivium (TRZAW), Avena fatua (AVEFA), Alopecurus myosuroides (ALOMY), Echinochloa crus-galli (ECHCG), Lolium perenne (LOLPE), Zea Mays (ZEAMX), Abutilon theophrasti (ABUTH), Amaranthus retroflexus (AMARE) and Setaria fabenri (SETFA). After 8 days cultivation (post-emergence) under controlled conditions in a glasshouse (at 24/16° C., day/night; 14 hours light; 65% humidity), the plants were sprayed with an aqueous spray solution derived from the formulation of the technical active ingredient in acetone I water (50:50) solution containing 0.5% Tween 20 (polyoxyethelyene sorbitan monolaurate, CAS RN 9005-64-5). The test plants were then grown in a glasshouse under controlled conditions (at 24/16° C., day/night; 14 hours light; 65% humidity) and watered twice daily. After 13 days, the test was evaluated (5=total damage to plant; 0=no damage to plant).

Lolium perenne (LOLPE) [5] = test: B1 Pre-emergence herbicidal activity; conditions: pre-emergence application, rate 1000 g/ha, evaluated after 13 days
In short: as §1

Lolium perenne (LOLPE) [6] = test: B2 Post-emergence herbicidal activity; conditions: post-emergence application, rate 1000 g/ha, evaluated after 13 days
Method: as §2

[7] = test system: Echinochloa crus-galli (ECHCG); test: B2 Post-emergence herbicidal activity; set-up: key to Post-emergence herbicidal activity, ECHCG (damage score 0-5): 5=total damage to plant; 0=no damage to plant; conditions: post-emergence application, rate 1000 g/ha, evaluated after 13 days
In short: (§3)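 Visual damage score (0 = none, 5 = total) taken 13 days after treatment. Seedlings had been cultivated 8 days in pots of standard soil before being sprayed with an aqueous solution of compound in acetone/water (50:50) containing 0.5% Tween 20.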

[8] = test system: Alopecurus myosuroides (ALOMY); test: B2 Post-emergence herbicidal activity; set-up: key: 5=total damage to plant; 0=no damage to plant; conditions: post-emergence application, rate 1000 g/ha, evaluated after 13 days
In short: as §3

[9] = test system: Triticum aestivium (TRZAW); test: B2 Post-emergence herbicidal activity; set-up: key: 5=total damage to plant; 0=no damage to plant; conditions: post-emergence application, rate 1000 g/ha, evaluated after 13 days
In short: as §3

Setaria fabenri (SETFA) = test: B2 Post-emergence herbicidal activity; set-up: key: 5=total damage to plant; 0=no damage to plant; conditions: post-emergence application, rate 1000 g/ha, evaluated after 13 days
In short: as §3

Setaria fabenr (SETFA) = test: B1 Pre-emergence herbicidal activity; set-up: key to Pre-emergence herbicidal activity, SETFA (damage score 0-5): 5=total damage to plant; 0=no damage to plant; conditions: pre-emergence application, rate 1000 g/ha, evaluated after 13 days
In short: as §1

[10] = test system: Echinochloa crus-galli (ECHCG); test: B1 Pre-emergence herbicidal activity; set-up: key to Pre-emergence herbicidal activity, ECHCG (damage score 0-5): 5=total damage to plant; 0=no damage to plant; conditions: pre-emergence application, rate 1000 g/ha, evaluated after 13 days
In short: as §1

Row | Compound | Pre-emergence herbicidal activity, AVEFA (damage score 0-5) (Avena fatua (AVEFA) [1]) | Pre-emergence herbicidal activity, ALOMY (damage score 0-5) [2] | Pre-emergence herbicidal activity, TRAZW (damage score 0-5) [3] | Post-emergence herbicidal activity, AVEFA (damage score 0-5) (Avena fatua (AVEFA) [4]) | Pre-emergence herbicidal activity, LOLPE (damage score 0-5) (Lolium perenne (LOLPE) [5]) | Post-emergence herbicidal activity, LOLPE (damage score 0-5) (Lolium perenne (LOLPE) [6]) | Post-emergence herbicidal activity, ECHCG (damage score 0-5) [7] | Post-emergence herbicidal activity, ALOMY (damage score 0-5) [8] | Post-emergence herbicidal activity, TRAZW (damage score 0-5) [9] | Post-emergence herbicidal activity, SETFA (damage score 0-5) (Setaria fabenri (SETFA)) | Pre-emergence herbicidal activity, SETFA (damage score 0-5) (Setaria fabenr (SETFA)) | Pre-emergence herbicidal activity, ECHCG (damage score 0-5) [10]
1 | O=C1CCC(=O)N1c1ccc(-c2cncnc2)nc1C(F)(F)F [Compound C110] | 3 | 0 | 0 | 3 | 1 | 2 | 5 | 0 | 1 | 5 | 4 | 4
2 | CC(=O)OC(C)(C)C(=O)Nc1ccc(-c2cncc(F)c2)nc1C(F)(F)F [Compound C36] | 1 | 0 | 0 | 2 | 1 | 1 | 5 | 0 | 1 | 5 | 4 | 4
3 | COCCC(=O)Nc1ccc(-c2cncc(F)c2)nc1C(F)(F)F [Compound C24] | 4 | 1 | 0 | 4 | 1 | 4 | 5 | 1 | 1 | 5 | 5 | 4
4 | O=C1CCCN1c1ccc(-c2cncc(F)c2)nc1C(F)(F)F [Compound C55] | 1 | 0 | 0 | 3 | 1 | 2 | 4 | 1 | 0 | 4 | 4 | 1
5 | Cc1nc(-c2cncc(F)c2)ccc1NC(=O)C(C)C [Compound C3] | 0 | 0 | 0 | 3 | 1 | 3 | 5 | 1 | 1 | 5 | 5 | 4
6 | O=C(Nc1ccc(-c2cncc(F)c2)nc1C(F)(F)F)C(Cl)(Cl)Cl [Compound C29] | 4 | 0 | 0 | 4 | 1 | 3 | 5 | 0 | 0 | 5 | 5 | 5
